# Read-outs that look alike come from different tables or passages of the source.
# Columns and labels:
# [1] = test system: human acute monocytic leukemia (MonoMac6) cells; conditions: cited from earlier work
# Excerpt: (§1) Table 1 Comparative study of cytotoxic effects and cardiotoxicity elicited by GnRH-based antitumor compounds (1–15) and reference substances (AN-152, Dox, Dau, Mtx). IC50 values show antitumor cytotoxic characteristics of the conjugates in human breast cancer (MCF-7), human colorectal adenocarcinoma (HT-29) and human acute monocytic leukemia (MM6) derived cell lines as representative tumor cells.
# [2] = test system: HT-29 human colon adenocarcinoma cells; conditions: MTT assay; cited from earlier work
# Excerpt: as §1
# [3] = test system: MCF-7 human breast adenocarcinoma cells; conditions: MTT assay; cited from earlier work
# Excerpt: as §1
# [4] = test system: primary human cardiac myocytes (HCM); conditions: HCM, three parallels; for delta slope (DS), short-term: 0–2 h; for delta slope (DS), long-term: 0–72 h
# [5] = test system: human umbilical vein endothelial cells (HUVEC); test: Impedimetric measurement (xCELLigence SP), delta slope, HUVEC; conditions: HUVEC, three parallels; for delta slope (DS), short-term: 0–2 h; for delta slope (DS), long-term: 0–72 h
structure (smiles),measurement,setting,value
COc1cccc2c1C(=O)c1c(O)c3c(c(O)c1C2=O)C[C@@](O)(C(C)=O)C[C@@H]3O[C@H]1C[C@H](N)[C@H](O)[C@H](C)O1 [daunorubicin],IC50,[1],0.08 ± 0.1 nM
same,IC50,[2],300 ± 200 nM
same,IC50,[3],400 ± 100 nM
same,"delta slope (DS), short-term","[4]; Table S1b, 10^-6 mol/L",0.031
same,"delta slope (DS), short-term","[4]; Table S1b, 10^-7 mol/L",-0.001
same,"delta slope (DS), short-term","[4]; Table S1b, 10^-8 mol/L",0.001
same,"delta slope (DS), short-term","[4]; Table S1b, 10^-9 mol/L",-0.001
same,"delta slope (DS), short-term","[4]; Table S1b, 10^-10 mol/L",-0.001
same,"delta slope (DS), short-term","[4]; Table S1b, 10^-11 mol/L",-0.001
same,"delta slope (DS), short-term","[4]; Table S1b, 10^-12 mol/L",-0.001
same,"delta slope (DS), long-term","[4]; Table S1b, 10^-6 mol/L",−0.019
same,"delta slope (DS), long-term","[4]; Table S1b, 10^-6 mol/L, listed as Daunorubicin",-0.019
same,"delta slope (DS), long-term","[4]; Table S1b, 10^-7 mol/L",−0.007
same,"delta slope (DS), long-term","[4]; Table S1b, 10^-7 mol/L, listed as Daunorubicin",-0.007
same,"delta slope (DS), long-term","[4]; Table S1b, 10^-8 mol/L",-0.001
same,"delta slope (DS), long-term","[4]; Table S1b, 10^-9 mol/L",-0.001
same,"delta slope (DS), long-term","[4]; Table S1b, 10^-10 mol/L",-0.001
same,"delta slope (DS), long-term","[4]; Table S1b, 10^-11 mol/L",-0.001
same,"delta slope (DS), long-term","[4]; Table S1b, 10^-12 mol/L",-0.001
same,"delta slope (DS), short-term","[4]; Table S3b, 10^-6 mol/L",0.028
same,"delta slope (DS), short-term","[4]; Table S3b, 10^-8 mol/L",-0.001
same,"delta slope (DS), long-term","[4]; Table S3b, 10^-6 mol/L",-0.021
same,"delta slope (DS), long-term","[4]; Table S3b, 10^-7 mol/L",-0.006
same,"delta slope (DS), long-term","[4]; Table S3b, 10^-8 mol/L",-0.001
same,"delta slope (DS), short-term","[4]; Table S4b, 10^-6 mol/L",0.030
same,"delta slope (DS), short-term","[4]; Table S4b, 10^-7 mol/L",-0.009
same,"delta slope (DS), short-term","[4]; Table S4b, 10^-8 mol/L",-0.001
same,"delta slope (DS), long-term","[4]; Table S4b, 10^-6 mol/L",-0.024
same,"delta slope (DS), long-term","[4]; Table S4b, 10^-7 mol/L",-0.009
same,"delta slope (DS), long-term","[4]; Table S4b, 10^-8 mol/L",-0.001
same,"delta slope (DS), short-term","[4]; Table S5b, 10^-8 mol/L",-0.001
same,"delta slope (DS), long-term","[4]; Table S5b, 10^-8 mol/L",-0.001
same,"delta slope (DS), short-term","[5]; Table S1a, 10^-6 mol/L",0.047
same,"delta slope (DS), short-term","[5]; Table S1a, 10^-7 mol/L",0.055
same,"delta slope (DS), short-term","[5]; Table S1a, 10^-8 mol/L",0.018
same,"delta slope (DS), short-term","[5]; Table S1a, 10^-9 mol/L",-0.008
same,"delta slope (DS), short-term","[5]; Table S1a, 10^-10 mol/L",-0.008
same,"delta slope (DS), short-term","[5]; Table S1a, 10^-11 mol/L",0.008
same,"delta slope (DS), short-term","[5]; Table S1a, 10^-12 mol/L",-0.005
same,"delta slope (DS), long-term","[5]; Table S1a, 10^-6 mol/L",−0.019
same,"delta slope (DS), long-term","[5]; Table S1a, 10^-6 mol/L, listed as Daunorubicin",-0.019
same,"delta slope (DS), long-term","[5]; Table S1a, 10^-7 mol/L",−0.007
same,"delta slope (DS), long-term","[5]; Table S1a, 10^-7 mol/L, listed as Daunorubicin",-0.007
same,"delta slope (DS), long-term","[5]; Table S1a, 10^-8 mol/L",-0.001
same,"delta slope (DS), long-term","[5]; Table S1a, 10^-9 mol/L",-0.00113
same,"delta slope (DS), long-term","[5]; Table S1a, 10^-10 mol/L",0.001
same,"delta slope (DS), long-term","[5]; Table S1a, 10^-11 mol/L",0.002
same,"delta slope (DS), long-term","[5]; Table S1a, 10^-12 mol/L",-0.001
same,"delta slope (DS), short-term","[5]; Table S3a, 10^-6 mol/L",0.003
same,"delta slope (DS), short-term","[5]; Table S3a, 10^-7 mol/L",-0.002
same,"delta slope (DS), short-term","[5]; Table S3a, 10^-8 mol/L",-0.008
same,"delta slope (DS), long-term","[5]; Table S3a, 10^-6 mol/L",-0.010
same,"delta slope (DS), long-term","[5]; Table S3a, 10^-7 mol/L",0.001
same,"delta slope (DS), short-term","[5]; Table S4a, 10^-6 mol/L",0.009
same,"delta slope (DS), short-term","[5]; Table S4a, 10^-7 mol/L",0.016
same,"delta slope (DS), short-term","[5]; Table S4a, 10^-8 mol/L",0.005
same,"delta slope (DS), long-term","[5]; Table S4a, 10^-6 mol/L",-0.058
same,"delta slope (DS), long-term","[5]; Table S4a, 10^-7 mol/L",0.004
same,"delta slope (DS), long-term","[5]; Table S4a, 10^-8 mol/L",0.006
